# Source: patent publication US20210322375A1, “COMBINATION DRUG FORMULATIONS FOR TREATING PATIENTS WITH CARDIOVASCULAR DISEASE AND ASSOCIATED CONDITIONS” (Esperion Therapeutics, Inc., priority 2018, published 2021)
# How the values were obtained:
# [1] = system: hypercholesterolemic patients; assay: Phase 2b randomized double-blind trial: percent change from baseline to week 12 in lipids and CRP; type: in vivo, human
# Experimental: Brief Description of Clinical Study and Results.
# Study Objectives. The primary objective was to assess the LDL-C-lowering effect of ETC-1002 monotherapy (120 mg or 180 mg daily) versus EZE monotherapy in hypercholesterolemic patients with or without statin intolerance. Secondary objectives were to characterize the dose response of ETC-1002, evaluate the impact of treatment on other lipid and cardiometabolic biomarkers, compare the LDL-C-lowering effect of ETC-1002 plus EZE combination therapy with EZE monotherapy, and characterize the safety and tolerability of the treatment regimens, including muscle-related adverse events (AEs).
# Overall Study Design and Plan. […] 16, 2013 to Aug.
# LDL-C was calculated using the Friedewald equation.
# Efficacy Endpoints. The primary endpoint was the percent change from baseline to week 12 in calculated LDL-C in patients treated with ETC-1002 monotherapy versus those treated with EZE alone. Secondary endpoints included the dose-response relationship between ETC-1002 and the percent change in LDL-C from baseline to week 12, the percent change in LDL-C from baseline to week 12 in patients treated with ETC-1002 plus EZE versus those treated with EZE alone, and the percent change from baseline to week 12 for all treatment groups in LDL particle number, apolipoprotein B, total cholesterol, non-high-density lipoprotein cholesterol (non-HDL-C), HDL-C, HDL particle number, apolipoprotein A-I, triglycerides, very-low-density lipoprotein (VLDL) particle number, and high-sensitivity C-reactive protein (CRP). Lipoprotein particle number was measured using nuclear magnetic resonance […].
# Statistical Plan and Analyses. The study was designed to include 322 patients: 92 patients in each monotherapy group and 23 patients in each combination therapy group. Sample size calculations were performed using nQuery Advisor® version 7.0 (Statistical Solutions, Cork, Ireland). The sample size of 92 patients per monotherapy group was expected to provide 90% power to detect a difference of 10% in the absolute percent change from baseline to week 12 in LDL-C between either ETC-1002 treatment group and the EZE monotherapy group. This calculation was based on a 2-sided t test at the 5% level of significance and assumed a common standard deviation of 15% in the statin-tolerant patients and 22% in the statin-intolerant patients with a dropout rate of 15%.
# An analysis of covariance was used to compare each ETC-1002 treatment group with EZE monotherapy for each of the efficacy endpoints. The primary model included the effects of treatment and statin intolerance and the baseline value as a covariate. Baseline was defined as the mean of values from weeks −1 and 0 for LDL-C, non-HDL-C, total cholesterol, HDL-C, and triglycerides. For all other lipid and biomarker measures, baseline was defined as the last value before the first dose of study drug. Missing values at week 12 were imputed using the last-observation-carried-forward procedure. When LDL-C could not be calculated (i.e., triglycerides >400 mg/dL), beta-quantification measurements were used to determine LDL-C values. Least-squares (LS) means and standard errors were obtained for each treatment group; differences in LS means and p-values were obtained for the treatment comparisons. Graphical methods (e.g., normal probability plot and histogram of residuals, plot of residuals vs. predicted values) or analytical methods (e.g., Shapiro-Wilk test), or both, were used to assess the model assumptions. Because of departures from normality observed in the parameters of triglycerides, CRP, and VLDL particle number, nonparametric analyses were performed for these measures, with p-values obtained from the Wilcoxon rank-sum test and median values presented.
# Percent changes from baseline in LDL-C also were summarized by statin-tolerance subgroup. […]
# [2] = system: hypercholesterolemic patients; assay: Phase 2b trial: treatment-emergent adverse events and laboratory safety
# From the text: Study Population. Medically stable, hypercholesterolemic men and women aged 18 through 80 years with a body mass index between 18 to 45 kg/m^2 were included in the study. […] The study population included both statin-tolerant and statin-intolerant participants. Statin intolerance was defined as the inability to tolerate ≥2 statins because of muscle-related symptoms such as pain, weakness, or cramping that began or increased during statin therapy and resolved on statin discontinuation. At least 1 statin must have been administered at the lowest approved daily dose, defined as rosuvastatin 5 mg, atorvastatin 10 mg, simvastatin 10 mg, lovastatin 20 mg, pravastatin 40 mg, fluvastatin 40 mg, or pitavastatin 2 mg. Treatment with less than the lowest approved daily dose of a statin (i.e., skipping days) was considered equivalent to not tolerating 1 statin at the lowest approved daily dose.
# Overall Study Design and Plan. […] Patients underwent a 5-week washout of all lipid-regulating drugs and dietary supplements and abstained from these drugs and supplements throughout the study. Patients also underwent a 5-week patient-only-blinded placebo run-in during the screening period (week −5 to week 0). This single-blind placebo run-in period was used to eliminate patients with muscle-related AEs during placebo treatment. Patients reporting new or worsening, unexplained muscle-related AEs during this run-in period were excluded from the study.
# Patients were stratified (1:1) by history of statin intolerance and randomized at week 0 in a 4:4:4:1:1 ratio to once-daily treatment with capsules containing ETC-1002 120 mg, ETC-1002 180 mg, EZE, ETC-1002 120 mg plus EZE, or ETC-1002 180 mg plus EZE. […] A contract laboratory (Medpace Inc., Cincinnati, Ohio), performed all clinical laboratory tests. LDL-C was calculated using the Friedewald equation. Phlebotomy was performed after a minimum 12-hour fast (water was allowed) and only if the patient took their dose of study drug the previous day.
# Safety Endpoints. The safety of ETC-1002 was assessed using treatment-emergent AEs; hematology, serum chemistry, and urinalysis laboratory values; physical examination findings; vital sign measurements; electrocardiogram (ECG) readings; weight; and ankle and waist circumference measurements. AEs were coded using the Medical Dictionary for Regulatory Activities version 16.0 and evaluated by the investigator for severity and relation to study drug. Muscle-related AEs were defined as those from the system organ class of musculoskeletal and connective tissue disorders, except for those that were not obviously muscle related. Terms included in the muscle-related AE analysis were selected from this system organ class after database lock and before unblinding.
# Safety analyses were performed on the safety population, which included randomized patients who received at least 1 dose of study drug. Baseline patient characteristics were summarized for the safety population by treatment group and statin-tolerance subgroup.
# Muscle-related AEs also were summarized by statin-tolerance subgroup.
# [3] = EZE 10 mg daily, mITT n = 98, LS mean ± SE
# [4] = EZE 10 mg daily, mITT n = 98, median (interquartile range)
# [5] = EZE 10 mg daily, safety population n = 99
# [6] = statin-intolerant patients, EZE 10 mg, n = 51
# [7] = statin-tolerant patients, EZE 10 mg, n = 48
smiles,measurement,setting,value
"O=C1[C@H](CC[C@H](O)c2ccc(F)cc2)[C@@H](c2ccc(O)cc2)N1c1ccc(F)cc1 [EZE, (3R,4S)-1-(4-fluorophenyl)-3-[(3S)-3-(4-fluorophenyl)-3-hydroxypropyl]-4-(4-hydroxyphenyl)azetidin-2-one, reference compound]","Apolipoprotein A-I, percent change from baseline to week 12",[1]; [3],2.0 ± 1.1%
same,"Apolipoprotein B, percent change from baseline to week 12",[1]; [3],−15.2 ± 1.2%
same,"HDL particle number, percent change from baseline to week 12",[1]; [3],6.7 ± 1.3%
same,"HDL-C, percent change from baseline to week 12",[1]; [3],5.0 ± 1.4%
same,"LDL particle number, percent change from baseline to week 12",[1]; [3],−12.7 ± 1.7%
same,"LDL-C, percent change from baseline to week 12",[1]; [3],−21.2 ± 1.3%
same,"Non-HDL-C, percent change from baseline to week 12",[1]; [3],−18.7 ± 1.2%
same,"Total cholesterol, percent change from baseline to week 12",[1]; [3],−14.3 ± 0.9%
same,"CRP, percent change from baseline to week 12",[1]; [4],−10.5 (59.0) %
same,"Triglycerides, percent change from baseline to week 12",[1]; [4],−7.0 (34.9) %
same,"VLDL particle number, percent change from baseline to week 12",[1]; [4],−12.6 (63.4) %
same,CRP reduction,[1]; EZE alone,10%
same,HDL-C increase,"[1]; EZE alone, week 12",5%
same,"ALT or AST, or both, increased >3 times the upper limit of normal at any measurement",[2]; EZE,1 patient
same,Serious AE reported (event),[2]; EZE,transient ischemic attack
same,"ALT increased, patients",[2]; [5],1 (1%) n (%)
same,"AST increased, patients",[2]; [5],0 n (%)
same,"Any AE(s), patients",[2]; [5],53 (54%) n (%)
same,"Arthralgia, patients",[2]; [5],4 (4%) n (%)
same,"Back pain, patients",[2]; [5],8 (8%) n (%)
same,"Blood CK increased, patients",[2]; [5],1 (1%) n (%)
same,"Constipation, patients",[2]; [5],1 (1%) n (%)
same,"Discontinuation due to AE(s), patients",[2]; [5],8 (8%) n (%)
same,"Headache, patients",[2]; [5],1 (1%) n (%)
same,"Myalgia, patients",[2]; [5],6 (6%) n (%)
same,"Nasopharyngitis, patients",[2]; [5],4 (4%) n (%)
same,"Serious AE(s), patients",[2]; [5],1 (1%) n (%)
same,"Study drug-related AE(s), patients",[2]; [5],19 (19%) n (%)
same,"Upper respiratory tract infection, patients",[2]; [5],1 (1%) n (%)
same,"Urinary tract infection, patients",[2]; [5],6 (6%) n (%)
same,"Myalgia, patients, entire study population",[2]; EZE alone,6%
same,"Any muscle-related AE, patients",[2]; [6],9 (18%) n (%)
same,"Muscle spasms, patients",[2]; [6],1 (2%) n (%)
same,"Muscle-related AE leading to discontinuation, patients",[2]; [6],5 (10%) n (%)
same,"Muscular weakness, patients",[2]; [6],1 (2%) n (%)
same,"Musculoskeletal chest pain, patients",[2]; [6],0 n (%)
same,"Musculoskeletal stiffness, patients",[2]; [6],1 (2%) n (%)
same,"Myalgia, patients",[2]; [6],6 (12%) n (%)
same,"Pain in extremity, patients",[2]; [6],3 (6%) n (%)
same,"Sensation of heaviness, patients",[2]; [6],1 (2%) n (%)
same,"Any muscle-related AE, patients",[2]; [7],3 (6%) n (%)
same,"Muscle spasms, patients",[2]; [7],2 (4%) n (%)
same,"Muscle-related AE leading to discontinuation, patients",[2]; [7],1 (2%) n (%)
same,"Musculoskeletal pain, patients",[2]; [7],1 (2%) n (%)
same,"Myalgia, patients",[2]; [7],0 n (%)
